Data from US5491169A, “Amino acid derivatives and their therapeutical applications” (priority 1989, dated 1996).
Where “and” joins values, the source holds several entries; their conditions need not be identical. Equal values may be shown once.

Tests used:
[1] = molecular target: T1, purified rabbit kidney neutral endopeptidase (Oryctolagus cuniculus, UniProt P08049); assay: In vitro inhibitory potency against neutral endopeptidase; assay type: biochemical; settings: purified rabbit kidney enzyme, (3H)-D-Ala2-Leu5-enkephalin, 25° C., pH 7.4, DTT 100 equivalents
T1 construct: from tissue; host or cells: rabbit kidney (purified enzyme)
T1 sequence (P08049 1-750): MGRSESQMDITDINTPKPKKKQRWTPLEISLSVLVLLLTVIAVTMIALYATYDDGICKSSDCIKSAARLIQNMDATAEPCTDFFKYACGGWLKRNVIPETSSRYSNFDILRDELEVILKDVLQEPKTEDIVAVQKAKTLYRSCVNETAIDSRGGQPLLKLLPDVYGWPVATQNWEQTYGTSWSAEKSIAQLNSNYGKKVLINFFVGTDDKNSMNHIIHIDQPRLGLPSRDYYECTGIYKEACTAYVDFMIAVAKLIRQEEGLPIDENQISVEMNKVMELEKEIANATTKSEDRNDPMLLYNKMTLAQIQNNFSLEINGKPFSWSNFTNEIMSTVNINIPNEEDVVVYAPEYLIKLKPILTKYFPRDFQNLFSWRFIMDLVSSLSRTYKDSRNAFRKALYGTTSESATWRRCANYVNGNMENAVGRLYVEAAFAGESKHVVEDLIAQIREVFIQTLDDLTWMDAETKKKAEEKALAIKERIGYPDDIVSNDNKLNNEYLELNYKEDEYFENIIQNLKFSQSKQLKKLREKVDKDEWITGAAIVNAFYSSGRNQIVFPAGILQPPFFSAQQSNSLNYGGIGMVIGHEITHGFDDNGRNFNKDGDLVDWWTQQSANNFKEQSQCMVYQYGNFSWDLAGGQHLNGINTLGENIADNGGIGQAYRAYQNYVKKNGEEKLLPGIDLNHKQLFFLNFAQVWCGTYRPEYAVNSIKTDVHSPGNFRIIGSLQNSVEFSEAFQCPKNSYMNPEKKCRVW
Experimental: (§1) The biological activity relates to the inhibition of purified aminopeptidase N and of purified neutral endopeptidase.
(§2) 1) In vitro inhibition of enkephalinase activities.
a) Inhibitory potency against neutral endopeptidase
The inhibitory power is determined on purified rabbit kidney neutral endopeptidase following the protocol described in the literature (Blumberg et al. Life Sci. (1981) 28, 301). After a preincubation for 15 minutes at 25° C., an aliquot of proteins is incubated for 20 minutes at 25° C. in the presence of 20 nmol of (^3 H)-D-Ala^2 -Leu^5 -enkephalin and the test compound in solution in Tris-HCl buffer (pH 7.4) in the presence of dithiothreitol DTT (100 equivalents relative to the inhibitor). The reaction is stopped by adding 0.2 N HCl. The tritiated metabolite (^3 H)-Tyr-D-Ala-Gly is separated from the D-Ala^2 -Leu^5 -enkephalin by chromatography on a Porapak column, and the quantity formed measured using a liquid scintillation counter.
The activity of the different compounds is expressed as 50% inhibitory concentrations (IC50), and the results are summarized in Table II.

[2] = molecular target: T2, purified porcine kidney aminopeptidase N (Sus scrofa, UniProt P15145); assay: In vitro inhibitory potency against aminopeptidase N; assay type: biochemical; settings: purified porcine kidney enzyme, (3H)-Leu5-enkephalin, DTT
T2 construct: purchased Boehringer, France; host or cells: porcine kidney
T2 sequence (P15145 1-963): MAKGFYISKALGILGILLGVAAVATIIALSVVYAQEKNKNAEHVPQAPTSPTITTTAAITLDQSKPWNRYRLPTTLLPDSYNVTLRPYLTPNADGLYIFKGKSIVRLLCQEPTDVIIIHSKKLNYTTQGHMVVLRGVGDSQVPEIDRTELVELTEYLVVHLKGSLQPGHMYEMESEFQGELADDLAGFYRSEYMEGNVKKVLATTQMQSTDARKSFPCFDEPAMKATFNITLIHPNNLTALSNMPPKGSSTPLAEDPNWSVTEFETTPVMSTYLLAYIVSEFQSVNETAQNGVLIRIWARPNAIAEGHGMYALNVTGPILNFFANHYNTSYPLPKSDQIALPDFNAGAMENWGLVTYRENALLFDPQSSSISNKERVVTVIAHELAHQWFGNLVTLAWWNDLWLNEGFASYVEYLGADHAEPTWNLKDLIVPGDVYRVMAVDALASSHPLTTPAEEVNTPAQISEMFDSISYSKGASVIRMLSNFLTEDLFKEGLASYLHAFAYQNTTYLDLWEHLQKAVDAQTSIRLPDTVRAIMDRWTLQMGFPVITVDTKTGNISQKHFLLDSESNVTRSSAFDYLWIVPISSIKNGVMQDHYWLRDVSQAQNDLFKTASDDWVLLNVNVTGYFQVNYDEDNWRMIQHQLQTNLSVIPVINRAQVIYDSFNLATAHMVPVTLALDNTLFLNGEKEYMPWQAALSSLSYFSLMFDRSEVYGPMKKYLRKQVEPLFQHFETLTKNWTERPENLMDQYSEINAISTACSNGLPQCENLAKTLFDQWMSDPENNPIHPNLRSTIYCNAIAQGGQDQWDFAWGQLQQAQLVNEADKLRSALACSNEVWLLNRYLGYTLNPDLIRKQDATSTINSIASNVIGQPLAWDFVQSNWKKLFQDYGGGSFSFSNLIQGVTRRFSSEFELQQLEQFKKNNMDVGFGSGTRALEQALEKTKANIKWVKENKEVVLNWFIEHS
Experimental: as §1, §2
b) Inhibitory potency against aminopeptidase N
The inhibitory power is measured on purified porcine kidney aminopeptidase (Boehringer, France). The assay is performed in a manner identical to the above, using (^3 H)-Leu^5 -enkephalin as a substrate. The metabolite formed, (^3 H)-Tyr, is separated by chromatography on a Porapak column, and the quantity formed measured using a liquid scintillation counter.

[3] = Hot plate test, i.v.; assay type: in vivo; settings: Mus musculus, iv, mice, hot plate 55° C., Table III 50% analgesia
Experimental: (§3) 1) Hot .plate test: This involves the licking and jumping reflex of the mouse on a plate heated to 55° C., according to the method of Jacob et al (Arch Int. Pharmacodyn. 122 287, 1959; 1961).
1.1. Administered i.v. (100 μl in tail vein) in mice, the compounds tested display a characteristic effect both on the latency time of jumping and on latency time of licking. These effects are antagonized by naloxone (0.5 mg/kg s.c.).
The results are expressed in Table III as a % analgesia. The percentage analgesia is expressed for each dose of compound tested by the following formula: [formula]

[4] = Hot plate test, i.p.; assay type: in vivo; settings: mice
Experimental: as §3
1.2 Administered i.p. in mice, the test compounds display a characteristic effect on the times of restraint of jumping and of licking. These effects are antagonized by naloxone (0.5 mg/kg).

[5] = Tail flick test (withdrawal of the tail), i.v.; assay type: in vivo; settings: rats, 10 mg/kg
Experimental: 3) Test of withdrawal of the tail in rats: (tail flick test): administered i.v. in rats, the compounds according to the invention produce a significant extension of the time of withdrawal of the tail. These effects are antagonized by naloxone (0.5 mg/kg s.c.).
The results are expressed as a % analgesia for the same dose (10 mg/kg) of all the compounds tested.

[6] = Locomotor activity (righting movements) after long-term sulpiride; assay type: in vivo, rats; settings: rat, after three weeks of sulpiride, control rat 100%
Experimental: c) Potentiation of the behavioral effects (locomotor hyperactivity) induced by the compounds according to the invention after long-term treatment with […]: 1 h after i.v. or p.o. administration in rats, the compounds according to the invention induce an increase in locomotor activity. […] This potentiation is not apparent until three weeks after the beginning of the treatment with neuroleptics.

[7] = Mice despair test; assay type: in vivo; settings: mouse, controls 165 ± 15, p < 0.01
Experimental: This test, described by Porsolt et al. (Arch. Int. Pharmacodyn. Ther, 299, 327 (1977), enables the antidepressant properties of the claimed compounds to be evaluated.
Mice are treated with increasing doses of the compounds thirty minutes before the test, and the immobility of the animals is measured relative to controls which receive only the vehicle. The immobility time is decreased by the compounds according to the invention, and this effect is antagonized by naloxame (0.5 mg/kg s.c.).

[8] = tested on: cerebral NEP; assay: In vivo inhibition of cerebral NEP; settings: mice, i.v., 2.7 μmol/kg (Example 7: same conditions)
Experimental: 2) "In vivo" inhibition of cerebral NEP
The enzymatic activity of cerebral NEP is compared in mice untreated or treated with a given dose of compound (approximately 2.5 mg/kg injected intravenously. The animals are sacrificed at variable times after injection of the inhibitor, and the NEP activity is determined in the brain by measuring the degradation of (^3 H)-D-Ala^2 -Leu^5 -enkephalin.
For the final compound of Example 1, injected at a dose of 2.7 μmol/kg (47.6 μg in 100 μl), the following results are obtained: […]

[9] = Test on abdominal cramps induced by phenylbenzoquinone, i.v.; assay type: in vivo
Experimental: 2) Test on abdominal cramps
(Hendershot and Forsaith. J. Pharmacol. (1975), 125, 237): This test measures the number of cramps induced by i.p. injection of 100 μl of a 0.02% solution of phenylbenzoquinone. The number of cramps is counted during 10 minutes, 10 minutes after the injection. Administered i.v., the compounds decrease the number of cramps.

[10] = Cross-tolerance with morphine, i.v. injection into morphine-tolerant animal; settings: mouse or rat
[11] = Tolerance after long-term administration, mice (% analgesia); assay type: in vivo; settings: mouse, in vivo
Experimental: (§4) e) Study of the tolerance and addiction effects induced by long-term administration of the compound of Example 8:
(§5) 1) The compound 8 is administered s.c. four times per 24 hours at a dose of 5 mg/kg for 6 days to mice and at 10 mg/kg to rats.
(§6) Morphine (hydrochloride) is administered under the same conditions (0.5 mg/kg in mice, 2 mg/kg in rats). The control animals receive only the vehicle.

[12] = Tolerance after long-term administration, rats (% analgesia); assay type: in vivo; settings: rat, in vivo
Experimental: as §4, §5, §6

[13] = Addiction effects: naloxone-precipitated abstinence syndrome after long-term treatment; assay type: in vivo; settings: rats, 6 days long-term treatment, naloxone 2 mg/kg s.c.; compared to morphine
Experimental: as §5
2) After long-term treatment for 6 days under the conditions described above, the rats undergo an injection of 2 mg/kg of naloxane s.c. The signs of abstinence syndrome are measured according to Cowan et al. (J. Pharmacol. Exp. Ther. (1988) 246, 950).

CSCCC(N)CSSCC(Cc1ccccc1)C(=O)NCC(=O)OCc1ccccc1 (stereo not drawn) [Example 5]
IC50 [1]: 2 nM | IC50 [2]: 2 nM | ED50 [3]: 2.5 mg/kg | dose in i.p. hot plate table [4]: 7 mg/kg | % analgesia (tail flick) [5]: 25% | Locomotor activity ([6]; i.v., 5 mg/kg): 400% | Immobility time ([7]; 5 mg/kg i.p.): 108 ± 12 s

CSCCC(N)CSSCC(Cc1ccccc1)C(=O)NC(Cc1ccccc1)C(=O)OCc1ccccc1 (stereo not drawn) [Example 7]
IC50 [1]: 2.5 nM | % inhibition cerebral NEP ([8]; 60'): 96 ± 5% | % inhibition cerebral NEP ([8]; 120'): 96 ± 4% | % inhibition cerebral NEP ([8]; 180'): 92 ± 4% | ED50 [3]: 5 mg/kg | dose in i.p. hot plate table [4]: 8 mg/kg | % analgesia (abdominal cramps) ([9]; 2.5 mg/kg): 32% ± 4 | % analgesia (abdominal cramps) ([9]; 5 mg/kg): 68% ± 9 | % analgesia (abdominal cramps) ([9]; 10 mg/kg): 95% ± 4 | % analgesia (tail flick) [5]: 42% | Locomotor activity ([6]; i.v., 3 mg/kg): 400% | analgesic response in morphine-tolerant animal [10]: analgesic response identical to that obtained in a control animal | cross-tolerance with morphine [10]: absence of cross-tolerance

C[S+]([O-])CCC(N)CSSCC(Cc1ccccc1)C(=O)NCC(=O)OCc1ccccc1 (stereo not drawn) [Example 8]
IC50 [1]: 2 nM | IC50 [2]: 2 nM | ED50 [3]: 2.5 mg/kg | % analgesia relative to the controls [11]: 100 ± 10% and 100 ± 8% and 70 ± 15% | % analgesia relative to the controls [12]: 40 ± 5% and 30 ± 7% | addiction effects [13]: very weak addiction effects

C[S+]([O-])CCC(N)CSSCC(CC[S+](C)[O-])C(=O)NC(CC(=O)OCc1ccccc1)Cc1ccccc1 (stereo not drawn) [Example 30]
IC50 [1]: 3 nM | IC50 [2]: 2 nM | ED50 [3]: 3 mg/kg | Locomotor activity ([6]; i.v. (so in the source), 20 mg/kg): 370% | Locomotor activity ([6]; i.v., 2 mg/kg): 350% | Immobility time ([7]; 2 mg/kg i.p.): 96 ± 8 s | Immobility time ([7]; 20 mg/kg p.o.): 101 ± 10 s
